From PubChem BioAssay AID1963842 (Molecular Pharmacology Branch, DTP, NCI, 2024)
pIC50: −log10 of the molar value.

Tested on: 677734-321-R-J1-PDC complex spheroid viability
Assay: Anticancer human tumor 677734-321-R-J1-PDC patient-derived soft tissue sarcoma cell line growth inhibition [POLQ]
Conditions: for pIC50: curve of first compound; for viability, T/C: stronger effect = lower value
In short: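 PDC + HUVEC + MSC complex spheroids; POLQ inhibitors ± partner drugs; top conc. at/near clinical Cmax, else 10 microM (SN-38 1 microM), half-log dilutions; 37 degrees C, 5% CO2.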

[1] = second compound 0.0316 µM, first compound 0.0316 µM
[2] = second compound 0.0316 µM, first compound 0.1 µM
[3] = second compound 0.0316 µM, first compound 0.316 µM
[4] = second compound 0.0316 µM, first compound 1 µM
[5] = second compound 0.0316 µM, first compound 3.16 µM
[6] = second compound 0.0316 µM, first compound 10 µM
[7] = second compound 0.1 µM, first compound 0.0316 µM
[8] = second compound 0.1 µM, first compound 0.1 µM
[9] = second compound 0.1 µM, first compound 0.316 µM
[10] = second compound 0.1 µM, first compound 1 µM
[11] = second compound 0.1 µM, first compound 3.16 µM
[12] = second compound 0.1 µM, first compound 10 µM
[13] = second compound 0.316 µM, first compound 0.0316 µM
[14] = second compound 0.316 µM, first compound 0.1 µM
[15] = second compound 0.316 µM, first compound 0.316 µM
[16] = second compound 0.316 µM, first compound 1 µM
[17] = second compound 0.316 µM, first compound 3.16 µM
[18] = second compound 0.316 µM, first compound 10 µM
[19] = second compound 1 µM, first compound 0.0316 µM
[20] = second compound 1 µM, first compound 0.1 µM
[21] = second compound 1 µM, first compound 0.316 µM
[22] = second compound 1 µM, first compound 1 µM
[23] = second compound 1 µM, first compound 3.16 µM
[24] = second compound 1 µM, first compound 10 µM
[25] = second compound 3.16 µM, first compound 0.0316 µM
[26] = second compound 3.16 µM, first compound 0.1 µM
[27] = second compound 3.16 µM, first compound 0.316 µM
[28] = second compound 3.16 µM, first compound 1 µM
[29] = second compound 3.16 µM, first compound 3.16 µM
[30] = second compound 3.16 µM, first compound 10 µM
[31] = second compound 10 µM, first compound 0.0316 µM
[32] = second compound 10 µM, first compound 0.1 µM
[33] = second compound 10 µM, first compound 0.316 µM
[34] = second compound 10 µM, first compound 1 µM
[35] = second compound 10 µM, first compound 3.16 µM
[36] = second compound 10 µM, first compound 10 µM
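Note: spheroids exposed to compounds for one week.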
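Throughout, for viability, T/C: 100% = vehicle DMSO treated spheroids.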

O=c1[nH]cc(F)c(=O)[nH]1 + Cc1cccc(N(C)C(=O)C2C(O)CCN2c2nc(C)cc(C(F)(F)F)c2C#N)c1
pIC50 (second compound 0.0316 µM): 5.27
pIC50 (second compound 0.1 µM): 5.53
pIC50 (second compound 0.316 µM): 5.50
pIC50 (second compound 1 µM): 5.23
pIC50 (second compound 3.16 µM): 5.16
pIC50 (second compound 10 µM): 5.54
viability, T/C [1]: 104%
viability, T/C [2]: 110%
viability, T/C [3]: 111%
viability, T/C [4]: 93.9%
viability, T/C [5]: 54.6%
viability, T/C [6]: 44.9%
viability, T/C [7]: 107%
viability, T/C [8]: 103%
viability, T/C [9]: 104%
viability, T/C [10]: 76.5%
viability, T/C [11]: 49.2%
viability, T/C [12]: 44.8%
viability, T/C [13]: 112%
viability, T/C [14]: 108%
viability, T/C [15]: 103%
viability, T/C [16]: 97.7%
viability, T/C [17]: 49.8%
viability, T/C [18]: 47.2%
viability, T/C [19]: 104%
viability, T/C [20]: 106%
viability, T/C [21]: 108%
viability, T/C [22]: 90.9%
viability, T/C [23]: 55.9%
viability, T/C [24]: 45.1%
viability, T/C [25]: 108%
viability, T/C [26]: 105%
viability, T/C [27]: 112%
viability, T/C [28]: 101%
viability, T/C [29]: 54.3%
viability, T/C [30]: 48%
viability, T/C [31]: 104%
viability, T/C [32]: 99.3%
viability, T/C [33]: 105%
viability, T/C [34]: 83%
viability, T/C [35]: 47.6%
viability, T/C [36]: 46.8%

Cn1ncnc1[C@H]1c2n[nH]c(=O)c3cc(F)cc(c23)N[C@@H]1c1ccc(F)cc1 + Cc1cccc(N(C)C(=O)C2C(O)CCN2c2nc(C)cc(C(F)(F)F)c2C#N)c1
pIC50 (second compound 0.0316 µM): < 7.00
pIC50 (second compound 0.1 µM): < 7.00
pIC50 (second compound 0.316 µM): < 7.00
pIC50 (second compound 1 µM): < 7.00
pIC50 (second compound 3.16 µM): < 7.00
pIC50 (second compound 10 µM): < 7.00
viability, T/C (second compound 0.0316 µM, first compound 0.000316 µM): 110%
viability, T/C (second compound 0.0316 µM, first compound 0.001 µM): 102%
viability, T/C (second compound 0.0316 µM, first compound 0.00316 µM): 100%
viability, T/C (second compound 0.0316 µM, first compound 0.01 µM): 107%
viability, T/C [1]: 104%
viability, T/C [2]: 87.3%
viability, T/C (second compound 0.1 µM, first compound 0.000316 µM): 103%
viability, T/C (second compound 0.1 µM, first compound 0.001 µM): 99.7%
viability, T/C (second compound 0.1 µM, first compound 0.00316 µM): 102%
viability, T/C (second compound 0.1 µM, first compound 0.01 µM): 107%
viability, T/C [7]: 101%
viability, T/C [8]: 95.1%
viability, T/C (second compound 0.316 µM, first compound 0.000316 µM): 103%
viability, T/C (second compound 0.316 µM, first compound 0.001 µM): 97.8%
viability, T/C (second compound 0.316 µM, first compound 0.00316 µM): 102%
viability, T/C (second compound 0.316 µM, first compound 0.01 µM): 102%
viability, T/C [13]: 102%
viability, T/C [14]: 96.2%
viability, T/C (second compound 1 µM, first compound 0.000316 µM): 109%
viability, T/C (second compound 1 µM, first compound 0.001 µM): 96.4%
viability, T/C (second compound 1 µM, first compound 0.00316 µM): 96.9%
viability, T/C (second compound 1 µM, first compound 0.01 µM): 103%
viability, T/C [19]: 96%
viability, T/C [20]: 94.5%
viability, T/C (second compound 3.16 µM, first compound 0.000316 µM): 100%
viability, T/C (second compound 3.16 µM, first compound 0.001 µM): 98.7%
viability, T/C (second compound 3.16 µM, first compound 0.00316 µM): 101%
viability, T/C (second compound 3.16 µM, first compound 0.01 µM): 99%
viability, T/C [25]: 102%
viability, T/C [26]: 91.3%
viability, T/C (second compound 10 µM, first compound 0.000316 µM): 103%
viability, T/C (second compound 10 µM, first compound 0.001 µM): 92.1%
viability, T/C (second compound 10 µM, first compound 0.00316 µM): 101%
viability, T/C (second compound 10 µM, first compound 0.01 µM): 97.9%
viability, T/C [31]: 91.3%
viability, T/C [32]: 91.1%

O=C(c1cc(Cc2n[nH]c(=O)c3ccccc23)ccc1F)N1CCN(C(=O)C2CC2)CC1 + Nc1ccc(C#CCN(C(=O)Cc2ncc(C(F)(F)F)cc2C(F)(F)F)c2ccc(F)cc2)nn1
pIC50 (second compound 0.0316 µM): < 5.00
pIC50 (second compound 0.1 µM): < 5.00
pIC50 (second compound 0.316 µM): < 5.00
pIC50 (second compound 1 µM): < 5.00
pIC50 (second compound 3.16 µM): < 5.00
pIC50 (second compound 10 µM): < 5.00
viability, T/C [1]: 97%
viability, T/C [2]: 122%
viability, T/C [3]: 101%
viability, T/C [4]: 105%
viability, T/C [5]: 88.1%
viability, T/C [6]: 63.3%
viability, T/C [7]: 110%
viability, T/C [8]: 102%
viability, T/C [9]: 98.6%
viability, T/C [10]: 110%
viability, T/C [11]: 83.8%
viability, T/C [12]: 71.2%
viability, T/C [13]: 110%
viability, T/C [14]: 116%
viability, T/C [15]: 104%
viability, T/C [16]: 93.2%
viability, T/C [17]: 96.1%
viability, T/C [18]: 68.8%
viability, T/C [19]: 109%
viability, T/C [20]: 108%
viability, T/C [21]: 96.5%
viability, T/C [22]: 93%
viability, T/C [23]: 92.7%
viability, T/C [24]: 50.3%
viability, T/C [25]: 123%
viability, T/C [26]: 110%
viability, T/C [27]: 89.4%
viability, T/C [28]: 92.8%
viability, T/C [29]: 90.9%
viability, T/C [30]: 65.3%
viability, T/C [31]: 109%
viability, T/C [32]: 103%
viability, T/C [33]: 103%
viability, T/C [34]: 105%
viability, T/C [35]: 91.9%
viability, T/C [36]: 66.8%
